The results in this text go back to patent US12616751B2, “Photosensitizing antibody-fluorophore conjugates” (The USA, as represented by the Secretary, Department of …, priority 2010, dated 2026).

In one data set the test system is A431 tumors. The experiment in a line: Histological analysis immediately after PIT. The format is in vivo, mice.
A further data set concerns A431 (HER1+) tumors. Nature of the data set: In vivo PIT efficacy in A431 tumors. The protocol:
To determine the effect of Pan-IR700 or carrier alone followed by PIT, the following methods were used. […] Four days after A431 cell injection as described above, tumor volume reaching around 40 mm^3 were selected for the study. […] To test a short-term toxicity, 300 μg of Pan-IR700 was repeatedly administrated intravenously for non-tumor-bearing mice, twice a week, for 4 weeks.

The test system of another data set is A431 cells. The experiment in a line: Fluorescence microscopy of Pan-IR700 in A431 cells. It is filed as cell-based. The following applies: after 24 h incubation. The protocol: EGFR-expressing A431 cells were used as the target HER1+ cells. […] Cells were grown in RPMI 1640 supplemented with 10% fetal bovine serum and 1% penicillin/streptomycin in tissue culture flasks in a humidified incubator at 37° C. in an atmosphere of 95% air and 5% carbon dioxide. A431 or Balb/3T3/DsRed cells were seeded on cover glass-bottomed dishes and incubated for 24 hours. Pan-IR700 was added to the culture medium at 10 μg/mL and incubated either for 1 hour on ice or 6 hours at 37° C., then cells were washed with PBS. Culture medium was replaced with phenol red-free medium after washing with phosphate buffered saline (PBS).
Fluorescence microscopy was performed as described in Example 2 to detect the antigen-specific localization of IR700.
Reagents. […] The protein concentrations were determined with Coomassie Plus protein assay kit (Pierce Biotechnology) by measuring light absorption at 595 nm (8453 Value System; Agilent Technologies). […] Quenching efficiency (QE) for a particular conjugation is defined as the fluorescence intensity with SDS divided by fluorescence intensity without SDS. […] Fluorescence lifetime measurements. […] Lifetime values and lifetime mapping were calculated to fit fluorescence temporal point-spread functions (TPSFs) as single-exponential models with the Fit TPSF tool. […] Power densities were measured with an optical power meter (PM 100, Thorlabs). […]

In the case of “Pan-IR700: Panitumumab (anti-human EGFR IgG2 MAb) conjugated to IR700; about 3 to 4 IR700 per antibody”, the “necrosis (H-E histology)” value in the data set with A431 tumors (10 J/cm^2) is “necrotic cell damage was found in only limited areas”; in the data set with A431 tumors (30 or 50 J/cm^2) it was “Necrotic damage was diffuse and intense”. Also, the “tumor shrinkage of irradiated tumor” value with A431 (HER1+) tumors (300 μg, NIR light on day 1) was “Tumor shrinkage was confirmed on day 7”. In the data set on A431 (HER1+) tumors (30 J cm^−2), the survival time result is “significant increases in survival time”. Besides, in the data set with A431 (HER1+) tumors (30 J cm^−2, day 3, 7, 10, 14 and 17 after treatment), the tumor growth result is given as “significant tumor growth inhibition”. Moreover, the lethal side effects result in the data set with A431 (HER1+) tumors (during or after the treatment) was “no lethal side effects were found”. For the same substance, in the data set with A431 (HER1+) tumors (following irradiation), the “antitumor activity, 50 μg versus 300 μg” value is given as “less antitumor activity”. For the same substance, the “pathological analysis of tumor” value in the data set with A431 (HER1+) tumors (four days following PIT) is given as “only scant viable A431 tumor cells were present”. Moreover, the “day at which PIT treated tumors began to shrink” value with A431 (HER1+) tumors (mouse, in vivo) worked out at 2 days. Also, the tissue edema entry in the data set on A431 (HER1+) tumors (mouse, in vivo) is listed as “tissue edema developed superficially”. For the same substance, the “cell damage following exposure to NIR light” value in the data set with A431 cells is “immediate damage was induced in the cell membranes and lysosomes”.
